# Experimental data reported in patent US10897901B2, “Herbicidal composition” (FMC Corporation, priority 2007, dated 2021).
# Key:
# Assay type in all cases: in vivo
# [1] = test system: White Clover (Trifolium repens); assay: Example 2 post-emergent turf plot test, clover; conditions: 0.57 lb ai/acre
# Description: (§1) The experimental design used randomized plots with post-emergent treatment and three replications per test trial. The size of each experimental plot was 4 feet by 6 feet. The application of each test composition was performed with pressurized back-pack sprayers, calibrated to spray 200 gallons per acre. Test compositions containing sulfentrazone (DISMISS™ Turf Herbicide), quinclorac, (FACET® 75 DF herbicide) or a mixture of sulfentrazone and quinclorac in a one to three ratio, prepared as described above, were diluted with water to provide the appropriate test rate concentrations.
# (§2) The control of weeds was evaluated in each experimental plot from 1 to 27 days after treatment (DAT) of each test rate. The results, shown as an average of the replications, were compared with results observed in untreated control plots in the same trials.
# [2] = test system: Yellow Nutsedge (Cyperus esculentus); assay: Example 2 post-emergent turf plot test, nutsedge; conditions: 0.57 lb ai/acre
# Description: as §1, §2
# [3] = test system: Blackseed Plantain (Plantago rugelii); assay: Example 2 post-emergent turf plot test, plantain; conditions: 0.57 lb ai/acre
# Description: as §1, §2
# [4] = test system: Red River crabgrass (Digitaria ciliaris); assay: Example 3 post-emergence greenhouse pot test, crabgrass
# Description: Test compositions containing sulfentrazone (DISMISS™ Turf Herbicide), quniclorac, (DRIVE® 75 DF Herbicide) or mixture of sulfentrazone and quinclorac in a three to one ratio, prepared as described above, were diluted with water to provide the appropriate test rate concentrations. A nonionic surfactant (0.25%) was added to each test solution.
# The test weeds include Red River crabgrass (Digitaria ciliaris) and yellow nutsedge (Cyperus esculentusi).
# For post-emergence testing, three disposable 3 inch square pots for each rate of application of each herbicide were filled with a soil, comprised of peat moss, vermiculite, bark ash, pine bark, limestone and a wetting agent, to which 8 to 10 seeds were planted. The pots were placed in a greenhouse and watered daily, thus allowing the seeds to germinate and the foliage to develop.
# (§3) Pots designated for treatment were placed on a conveyor belt and the conveyor belt fed under a spray nozzle mounted about ten inches above the foliage. The spray of herbicidal solution was commenced and once stabilized; the pots were passed under the spray at a speed to receive a coverage equivalent of 30 gallons per acre. The application rates are those shown in Table 3 below for the individual herbicidal solutions and the mixture of sulfentrazone and quinclorac. The post-emergence pots were immediately placed in the green-house and not watered until 24 hours after treatment with the test solution. Thereafter they were regularly watered at ground level. The control of weeds was evaluated in each experimental test from 1 to 22 days after treatment (DAT). The results, shown as an average of the replications, were compared with results observed in untreated control pots in the same tests.
# (§4) Percent control was determined by a method similar to the 0 to 100 rating system disclosed in “Research Methods in Weed Science,” 2nd ed., B. Truelove, Ed.; Southern Weed Science Society; Auburn University, Auburn, Ala., 1977.
# [5] = test system: crabgrass (Digitaria sp); assay: Example 4 post-emergence greenhouse pot test, crabgrass; conditions: 0.25 lb ai/acre
# Description: Test compositions containing sulfentrazone (75 DF formulation), quniclorac, (DRIVE® 75 DF Herbicide) or mixtures of sulfentrazone and quinclorac at ratios of 1:1 to 1:5, were diluted with water to provide the appropriate test rate concentrations. A nonionic surfactant (0.25%) was added to each test solution. The test weeds include crabgrass (Digitaria sp), Chickweed (Stellaria media), Hemp Sesbania (Sesbania exaltata), Kochia (Kochia scoparia), Ivyleaf Morningglory (Ipomoea hederacea), Redroot Pigweed (Amaranthus retroflexus) and yellow nutsedge (Cyperus esculentusi).
# For post-emergence testing, three disposable 3 inch square pots for each rate of application of each herbicide were filled with a soil, comprised of peat moss, vermiculite, bark ash, pine bark, limestone and a wetting agent, to which 8 to 10 seeds were planted. The pots were placed in a greenhouse and watered daily, thus allowing the seeds to germinate and the foliage to develop for 22 days, 3 months for Kochia.
# as §3, with “Table 4” for “Table 3”, “from 2” for “from 1”, “to 20” for “to 22”
# as §4
compound,measurement,setting,value
"Cc1nn(-c2cc(NS(C)(=O)=O)c(Cl)cc2Cl)c(=O)n1C(F)F [A, N-[2,4-dichloro-5-[4-(difluoromethyl)-4,5-dihydro-3-methyl-5-oxo-1H-1,2,4-triazol-1-yl]phenyl]methanesulfonamide]",Percent Control,[1]; 7 DAT,45%
same,Percent Control,[1]; 14 DAT,74%
same,Percent Control,[1]; 21 DAT,68%
same,Percent Control,[2]; 7 DAT,100%
same,Percent Control,[2]; 14 DAT,100%
same,Percent Control,[2]; 21 DAT,100%
same,Percent Control,[3]; 7 DAT,100%
same,Percent Control,[3]; 14 DAT,100%
same,Percent Control,[3]; 21 DAT,100%
same,Percent Control,"[4]; 1-2 leaf stage, 11 days old, 0.125 lb ai/acre, 1 DAT",50%
same,Percent Control,"[4]; 1-2 leaf stage, 11 days old, 0.125 lb ai/acre, 3 DAT",60%
same,Percent Control,"[4]; 1-2 leaf stage, 11 days old, 0.125 lb ai/acre, 7 DAT",50%
same,Percent Control,"[4]; 1-2 leaf stage, 11 days old, 0.125 lb ai/acre, 14 DAT",40%
same,Percent Control,"[4]; 1-2 leaf stage, 11 days old, 0.125 lb ai/acre, 21 DAT",30%
same,Percent Control,"[4]; 1-2 leaf stage, 11 days old, 0.25 lb ai/acre, 1 DAT",60%
same,Percent Control,"[4]; 1-2 leaf stage, 11 days old, 0.25 lb ai/acre, 3 DAT",70%
same,Percent Control,"[4]; 1-2 leaf stage, 11 days old, 0.25 lb ai/acre, 7 DAT",50%
same,Percent Control,"[4]; 1-2 leaf stage, 11 days old, 0.25 lb ai/acre, 14 DAT",20%
same,Percent Control,"[4]; 1-2 leaf stage, 11 days old, 0.25 lb ai/acre, 21 DAT",5%
same,Percent Control,"[4]; 1-2 leaf stage, 11 days old, 0.375 lb ai/acre, 1 DAT",50%
same,Percent Control,"[4]; 1-2 leaf stage, 11 days old, 0.375 lb ai/acre, 3 DAT",70%
same,Percent Control,"[4]; 1-2 leaf stage, 11 days old, 0.375 lb ai/acre, 7 DAT",50%
same,Percent Control,"[4]; 1-2 leaf stage, 11 days old, 0.375 lb ai/acre, 14 DAT",20%
same,Percent Control,"[4]; 1-2 leaf stage, 11 days old, 0.375 lb ai/acre, 21 DAT",10%
same,Percent Control,"[4]; 3-4 leaf stage, 1-2 tillers, 14 days old, 0.125 lb ai/acre, 1 DAT",25%
same,Percent Control,"[4]; 3-4 leaf stage, 1-2 tillers, 14 days old, 0.125 lb ai/acre, 3 DAT",25%
same,Percent Control,"[4]; 3-4 leaf stage, 1-2 tillers, 14 days old, 0.125 lb ai/acre, 7 DAT",30%
same,Percent Control,"[4]; 3-4 leaf stage, 1-2 tillers, 14 days old, 0.125 lb ai/acre, 14 DAT",10%
same,Percent Control,"[4]; 3-4 leaf stage, 1-2 tillers, 14 days old, 0.125 lb ai/acre, 21 DAT",5%
same,Percent Control,"[4]; 3-4 leaf stage, 1-2 tillers, 14 days old, 0.25 lb ai/acre, 1 DAT",25%
same,Percent Control,"[4]; 3-4 leaf stage, 1-2 tillers, 14 days old, 0.25 lb ai/acre, 3 DAT",25%
same,Percent Control,"[4]; 3-4 leaf stage, 1-2 tillers, 14 days old, 0.25 lb ai/acre, 7 DAT",30%
same,Percent Control,"[4]; 3-4 leaf stage, 1-2 tillers, 14 days old, 0.25 lb ai/acre, 14 DAT",12%
same,Percent Control,"[4]; 3-4 leaf stage, 1-2 tillers, 14 days old, 0.25 lb ai/acre, 21 DAT",5%
same,Percent Control,"[4]; 3-4 leaf stage, 1-2 tillers, 14 days old, 0.375 lb ai/acre, 1 DAT",20%
same,Percent Control,"[4]; 3-4 leaf stage, 1-2 tillers, 14 days old, 0.375 lb ai/acre, 3 DAT",20%
same,Percent Control,"[4]; 3-4 leaf stage, 1-2 tillers, 14 days old, 0.375 lb ai/acre, 7 DAT",22%
same,Percent Control,"[4]; 3-4 leaf stage, 1-2 tillers, 14 days old, 0.375 lb ai/acre, 14 DAT",0%
same,Percent Control,"[4]; 3-4 leaf stage, 1-2 tillers, 14 days old, 0.375 lb ai/acre, 21 DAT",0%
same,Percent Control,[5]; 2 DAT,10%
same,Percent Control,[5]; 7 DAT,10%
same,Percent Control,[5]; 14 DAT,5%
same,Percent Control,[5]; 20 DAT,5%
